Measurements published in US11685741B2, “Fluorescent probes” (University of Massachusetts, priority 2017, dated 2023).
“And” between values parts separate entries of the source, which are not always exact repeats. Identical values can stand only once. “Also recorded” adds a separate entry of the source.

Experiments:
[1] = Binding studies of sensor with Fe3+ (Job's plot, titration, EDTA reversibility); settings: 1:1 sensor-Fe^3+ complex; ACN/Tris-HCl buffer pH 7.3
Protocol: Job's method and UV-vis spectra were applied to study the binding stoichiometry between Rh-PK and Fe^3+ and monitored by the absorbance at 555 nm. […] The binding constant of this complex was calculated following a method reported previously (G. E. Tumambac, et al., Tetrahedron 2004, 60, 11293-11297), using absorption values at […] by the equations described below, and was determined to be 1.54×10^7 […].
The equations below was used to calculate the binding constants with stoichiometry of 1:1. L+S↔LS where L=sensor, S=Fe3+ and LS=sensor-Fe^3+ complex. The apparent binding constant is given by
[formula] Fe is the fraction of L that formed a complex, [LS]e is concentration at equilibrium, [L]0 is the initial concentration. Au, Am, and Ac are the absorbances of solutions of L (before any Fe^3+ was added), during the titration and at saturation, respectively. The concentration of free Fe^3+ at equilibrium, [S]e, is found with the following identity. [S]e=[S]o−[LS]e=[S]o−Fc[L]o The apparent binding constant K can then be calculated from
Reversibility experiments were carried out by adding EDTA to the complex in ACN/Tris-HCl buffer (10 mM, pH 7.3, v/v 3:1). […]
The stoichiometry of RhHPA-Fe^3+ was measured using Job's plot and mole ratio plots methods. B. Valeur, Molecular Fluorescence: Principles and Applications, Wiley-VCH. […] To determine the binding constant of chemosensor, a fluorescence titration of different amounts of Fe^3+ into the acetonitrile solution of sensor was carried out. […] The determination of the binding constant of RhHPA was calculated using the following equation: F−Fmin=[…](Fmax−Fmin)/Kd where F is the observed fluorescence, Fmax is the maximum fluorescence for the RhHPA-Fe^3+ complex at concentration of the equal reacted between sensor and metal cation, Fmin is the fluorescence intensity for occurring RhHPA-Fe^3+.
Absorption enhancement observation at 558 nm was plotted against the molar value of the [Fe^3+]/[Fe^3+]+RhHPA and [Fe^3+]/RhHPA. […] Binding constant of fluorescent sensor “RhHPA” was calculated and it was found as K=1.27×10^7 M^−1. […]

[2] = Metal ion sensing: UV-vis and fluorescence response to Fe3+ and other metal ions; settings: one equivalent Fe^3+, ACN/Tris-HCl buffer pH 7.3
Protocol: The spectroscopic properties of Rh-PK and its interactions with various metal ions were evaluated in acetonitrile (ACN)/Tris-HCl buffer (10 mM, pH 7.3, v/v, 3:1). […] The changes in UV-Vis spectra after the addition of various ions are shown in FIG. 2, which is an absorbance spectrum of 100 μM sensor with various metal ions (100 μM for Ni^+2, Cu^+, Cu^+2, Zn^+2, Pb, Fe^+2, Fe^+3, Cr^+3, Hg^+2, Mn^+2, Ag^+, and Co^+2; 200 μM for K^+, Na^+, Ca^2+ and Mg^2+) in the ACN/Tris buffer (10 mM, pH 7.3, v/v 3:1).
When Fe^3+ was added into the solution of Rh-PK, a significant enhancement of fluorescence (>12-fold with 1.0 equiv of Fe^3+) was observed.
The interferences from the other metal ions with Rh-PK in its response to Fe^3+ was examined. […] Each of the 12 metal ions was pre-incubated with Rh-PK before 1 equiv. of Fe^3+ was added, the fluorescence response was then measured.
The stock solution of sensor and metal ions were prepared at the concentration of 1 mM. M. P. Walkees, Mutat. Res., 2003, 533, 107; M. Waisberg, et al., Toxicology, 2003, 192, 95.
The UV-vis. and fluorescence spectra of RhHPA to various possible interfering metal ions and its selectivity for Fe^3+ were examined. See FIG. 6, which is a plot of absorbance dependent on the concentration of Fe^3+ in the range from 0 to 2 equivalents in ACN/Tris-HCl buffer (10 mM, pH 7.3, v/v 2:1); FIG. 7, which is a Job's plot between Fe^3+ and RhHPA, indicating the 1:1 binding mode for sensor and iron(III). […] Addition of Na^+, K^+, Ca^2+, Mg^2+, Cr^3+, […], Hg^2+, Cu^2+, Pb^2+, Zn^2+, Fe^2+, Co^2+, Ni^2+, and Ag^+ exerted little or no effect on the emission of RhHPA, while remarkable fluorescence enhancement was detected upon the addition of Fe^3+ by excitation of the rhodamine fluorophore at 535 nm.
Experiments of iron(III) with other metal ions were investigated by means of the fluorescence response of RhHPA toward Fe^3+ in the presence of various other metal ions such as Na^+, K^+, Ca^2+, Mg^2+, Cr^3+, Hg^2+, Cu^2+, Pb^2+, Zn^2+, Fe^2+, Co^2+, Ni^2+, Cd^2+, and Ag^+. […] for Fe^3+ had no changes with addition of other metal ions. Cu(II) and Zn(II) increased the fluorescence intensity slightly.

[3] = Effect of pH on fluorescence of sensor and its Fe complex; format: physicochemical; settings: pH adjusted with HCl/NaOH
[4] = test system: Bovine aortic endothelial cells (BAEC); assay: Confocal imaging of Fe3+ with RhHPA in BAEC cells; format: cell-based
Protocol: Primary cultured Bovine aortic endothelial cells (BAEC) were passaged in Endothelial Basal Medium (Lonza) containing 5% fetal bovine serum. Before the experiment, the cells were cultured to about 8th generation. For experiment preparation, the cells were routinely subcultured using 0.05% trypsin-EDTA solution. The cells were seeded on the 25 cm^2 flask and medium change every two days until a 70% confluency before transferring into disks. The cells were seeded on the 1 cm^2 disk and a medium change the next day.
To evaluate the ability of RhHPA to capture Fe^3+ ions in cells, BAEC cells were incubated with the sensor (10 μM) for 30 min.
BAEC cells were incubated with 10 μM of ferric chloride (FeCl3) at 37° C. for overnight, then 10 μM of RhHPA was added to BAEC cells and was incubated at 37° C. for 30 min.
For the second control experiment, an Fe^3+-chelator SIH was added to iron-loaded and non-iron-loaded cells with RhHPA.
BAEC cells (without Fe^3+ treatment) were treated with RhHPA, MitoTracker Green FM and LysoTracker blue DND-22. As shown in FIG. 20A to FIG. 20H, there are partial colocalization between RhHPA-Fe^3+ and the MitoTracker (FIG. 20E) as well as that between RhHPA-Fe^3+ and the LysoTracker (FIG. 20F); however, a […] colocalization was observed among RhHPA-Fe^3+, MitoTracker and LysoTracker (FIG. 20G).

[5] = test system: cells in the culture experiments; assay: Cell permeability and toxicity in the culture experiments; format: cell-based

apparent binding constant [1]: 1.27e+07 M⁻¹
pH range over which sensor (and Fe complex) fluorescence is stable / working pH range [3]: 5-9 and 5 to 9
Structure (SMILES): CCN(CC)c1ccc2c(c1)Oc1cc(N(CC)CC)ccc1C21c2ccccc2C(=O)N1/N=C/c1cccc(CO)n1 [RhHPA, (E)-3′,6′-bis(diethylamino)-2-(((6-(hydroxymethyl)pyridin-2-yl)methylene)amino)spiro[isoindoline-1,9′-xanthen]-3-one]
increase in fluorescence emission intensity [2]: ~20 fold
increase in fluorescent intensity in Fe^3+-treated cells ([4]; 10 μM FeCl3 overnight, then 10 μM RhHPA 30 min): ~8 fold
fluorescence enhancement in cells ([4]; 10 μM sensor, 30 min, no Fe^3+ supplementation): 4 fold
change in fluorescence signal, Fe^3+ then chelator ([4]; 20 μM Fe^3+ overnight, then 100 μM SIH, then 10 μM RhHPA, versus Fe(III) supplement): large decrease in fluorescence signal
change in fluorescence signal with chelator ([4]; 100 μM SIH, non-iron-loaded cells): small decrease in fluorescence signal
toxicity for cells ([5]; culture experiments): non-toxic
cell permeability ([5]; live cells in culture): excellent cell permeability; also recorded: cell permeable
